Experiments:
[1] = system: ALOMY; assay: Pre-emergence action against ALOMY; type: in vivo, Alopecurus myosuroides; conditions: dosage 320 g/ha, pre-emergence, scored visually after 3 weeks vs untreated controls, 100% = plants have died, 0% = like control plants
Text: (§1) Seeds of monocotyledonous and dicotyledonous weed plants and crop plants are laid out in sandy loam soil in wood-fiber pots and covered with soil. The compounds of the invention, formulated in the form of wettable powders (WP) or as emulsion concentrates (EC), are then applied to the surface of the covering soil in the form of an aqueous suspension or emulsion at a water application rate equating to […], with addition of 0.2% wetting agent. After the treatment, the pots are placed in a greenhouse and kept under good growth conditions for the trial plants. The damage to the test plants is scored visually after a test period of 3 weeks by comparison with untreated controls (herbicidal activity in percent (%): 100% activity=the plants have died, 0% activity=like control plants).

[2] = system: CYPES; assay: Pre-emergence action against CYPES; type: in vivo, Cyperus esculentus; conditions: pre-emergence, dosage 320 g/ha, scored visually after 3 weeks vs untreated controls
Text: as §1

[3] = system: ECHCG; assay: Pre-emergence action against ECHCG; type: in vivo, Echinochloa crus-galli; conditions: pre-emergence, dosage 320 g/ha, scored visually after 3 weeks vs untreated controls; for pest or weed control at 320 g/ha: Echinochloa crus-galli, 504 h, read-out: Pre-emergence action against ECHCG (herbicidal activity)
Text: as §1

[4] = system: SETVI; assay: Pre-emergence action against SETVI; type: in vivo, Setaria viridis; conditions: pre-emergence, dosage 320 g/ha, scored visually after 3 weeks vs untreated controls; for pest or weed control at 320 g/ha: Setaria viridis, 504 h, read-out: SETVI (Table B8, pre-emergence herbicidal activity)
Text: as §1

[5] = system: ABUTH; assay: Pre-emergence action against ABUTH; type: in vivo, Abutilon theophrasti; conditions: pre-emergence, dosage 320 g/ha, scored visually after 3 weeks vs untreated controls; for pest or weed control at 320 g/ha: Abutilon theophrasti, 504 h, read-out: Pre-emergence action against ABUTH (herbicidal activity)
Text: as §1

[6] = system: AMARE; assay: Pre-emergence action against AMARE; type: in vivo, Amaranthus retroflexus; conditions: pre-emergence, dosage 320 g/ha, scored visually after 3 weeks vs untreated controls; for pest or weed control at 320 g/ha: Amaranthus retroflexus, 504 h, read-out: Pre-emergence action against AMARE (herbicidal activity)
Text: as §1

[7] = system: MATIN; assay: Pre-emergence action against MATIN; type: in vivo, Matricaria inodora; conditions: Dosage 320 g/ha, pre-emergence; for pest or weed control at 320 g/ha: Tripleurospermum inodorum, 504 h
Text: as §1

[8] = system: STEME; assay: Pre-emergence action against STEME; type: in vivo, Stellaria media; conditions: Dosage 320 g/ha, pre-emergence; for pest or weed control at 320 g/ha: Stellaria media, 504 h
Text: as §1

[9] = system: VIOTR; assay: Pre-emergence action against VIOTR; type: in vivo, Viola tricolor; conditions: Dosage 320 g/ha, pre-emergence; for pest or weed control at 320 g/ha: Viola tricolor, 504 h
Text: as §1

[10] = system: VERPE; assay: Pre-emergence action against VERPE; type: in vivo, Veronica persica; conditions: Dosage 320 g/ha, pre-emergence; for pest or weed control at 320 g/ha: Veronica persica, 504 h
Text: as §1

[11] = system: CYPES; assay: Post-emergence action against CYPES; type: in vivo, Cyperus esculentus; conditions: post-emergence, dosage 80 g/ha, visual assessment about 3 weeks after treatment vs untreated controls; for pest or weed control at 80 g/ha: Cyperus esculentus, 504 h, read-out: Post-emergence action against CYPES (herbicidal action in percent)
Experimental: (§2) Seeds of monocotyledonous and dicotyledonous weed and crop plants are laid out in sandy loam soil in wood-fiber pots, covered with soil and cultivated in a greenhouse under good growth conditions. 2 to 3 weeks after sowing, the test plants are treated at the one-leaf stage. The compounds of the invention, formulated in the form of wettable powders (WP) or as emulsion concentrates (EC), are then sprayed onto the green parts of the plants in the form of an aqueous suspension or emulsion at a water application rate equating to […], with addition of 0.2% wetting agent. After the test plants have been left to stand in the greenhouse under optimal growth conditions for about 3 weeks, the action of the preparations is assessed visually in comparison to untreated controls (herbicidal action in percent (%): 100% activity=the plants have died, 0% activity=like control plants). […] At the same time, inventive compounds leave Gramineae crops such as barley, wheat, rye, millet/Sorghum, corn or rice virtually undamaged when applied post-emergence, even at high active ingredient dosages. In addition, some substances are also harmless to dicotyledonous crops such as soya, cotton, oilseed rape, sugar beet or potatoes. Some of the compounds according to the invention have high selectivity and are therefore suitable for controlling unwanted vegetation in agricultural crops by the post-emergence method. The data of Tables B18 to B34 below illustrate, in an exemplary manner, the […] herbicidal action of the compounds according to the invention, the herbicidal activity being stated in percent.

[12] = system: ECHCG; assay: Post-emergence action against ECHCG; type: in vivo, Echinochloa crus-galli; conditions: post-emergence, dosage 80 g/ha, visual assessment about 3 weeks after treatment vs untreated controls; for pest or weed control at 80 g/ha: Echinochloa crus-galli, 504 h, read-out: Post-emergence action against ECHCG (herbicidal action in percent)
Experimental: as §2

[13] = system: SETVI; assay: Post-emergence action against SETVI; type: in vivo, Setaria viridis; conditions: post-emergence, dosage 80 g/ha, visual assessment about 3 weeks after treatment vs untreated controls; for pest or weed control at 80 g/ha: Setaria viridis, 504 h, read-out: Post-emergence action against SETVI (herbicidal action in percent)
Experimental: as §2

[14] = system: ABUTH; assay: Post-emergence action against ABUTH; type: in vivo, Abutilon theophrasti; conditions: post-emergence, dosage 80 g/ha, visual assessment about 3 weeks after treatment vs untreated controls; for pest or weed control at 80 g/ha: Abutilon theophrasti, 504 h, read-out: Post-emergence action against ABUTH (herbicidal action in percent)
Experimental: as §2

[15] = system: AMARE; assay: Post-emergence action against AMARE; type: in vivo, Amaranthus retroflexus; conditions: post-emergence, dosage 80 g/ha, visual assessment about 3 weeks after treatment vs untreated controls; for pest or weed control at 80 g/ha: Amaranthus retroflexus, 504 h, read-out: Post-emergence action against AMARE (herbicidal action in percent)
Experimental: as §2

[16] = system: MATIN; assay: Post-emergence action against MATIN; type: in vivo, Matricaria inodora; conditions: post-emergence, dosage 80 g/ha, visual assessment about 3 weeks after treatment vs untreated controls; for pest or weed control at 80 g/ha: Tripleurospermum inodorum, 504 h, read-out: Post-emergence action against MATIN (herbicidal action in percent)
Experimental: as §2

[17] = system: PHBPU; assay: Post-emergence action against PHBPU; type: in vivo, Pharbitis purpurea; conditions: post-emergence, dosage 80 g/ha; for pest or weed control at 80 g/ha: Ipomoea purpurea, 504 h
Experimental: as §2

[18] = system: STEME; assay: Post-emergence action against STEME; type: in vivo, Stellaria media; conditions: post-emergence, dosage 80 g/ha; for pest or weed control at 80 g/ha: Stellaria media, 504 h
Experimental: as §2

[19] = system: VIOTR; assay: Post-emergence action against VIOTR; type: in vivo, Viola tricolor; conditions: post-emergence, dosage 80 g/ha; for pest or weed control at 80 g/ha: Viola tricolor, 504 h
Experimental: as §2

[20] = system: VERPE; assay: Post-emergence action against VERPE; type: in vivo, Veronica persica; conditions: dosage 80 g/ha; for pest or weed control at 80 g/ha: Veronica persica, 504 h
Experimental: as §2

[21] = system: PHBPU; assay: Pre-emergence action against PHBPU; type: in vivo, Pharbitis purpurea; conditions: Dosage 320 g/ha, pre-emergence
Text: as §1

Compound	pest or weed control at 320 g/ha [3]	pest or weed control at 320 g/ha [4]	pest or weed control at 320 g/ha [5]	pest or weed control at 320 g/ha [6]	pest or weed control at 320 g/ha [7]	pest or weed control at 320 g/ha [8]	pest or weed control at 320 g/ha [9]	pest or weed control at 320 g/ha [10]	pest or weed control at 80 g/ha [11]	pest or weed control at 80 g/ha [12]	pest or weed control at 80 g/ha [13]	pest or weed control at 80 g/ha [14]	pest or weed control at 80 g/ha [15]	pest or weed control at 80 g/ha [16]	pest or weed control at 80 g/ha [17]	pest or weed control at 80 g/ha [18]	pest or weed control at 80 g/ha [19]	pest or weed control at 80 g/ha [20]	Pre-emergence action against ECHCG (herbicidal activity) [3]	Pre-emergence action against ABUTH (herbicidal activity) [5]	further results
CC(C)C(=O)c1c(Cl)ccc(C(=O)Nc2nnnn2C)c1Cl [1-280]	100%	90%	90%	100%	100%	90%	100%	90%	90%	90%	80%	80%	90%	90%	80%	100%	90%	90%	–	–	pest or weed control at 320 g/ha ([1]; Alopecurus myosuroides, 504 h, read-out: Pre-emergence action against ALOMY (herbicidal activity in percent)): 90%; pest or weed control at 320 g/ha ([2]; Cyperus esculentus, 504 h, read-out: Pre-emergence action against CYPES (herbicidal activity)): 100%
CCCn1nnnc1NC(=O)c1ccc(C)c(C(C)=O)c1Cl [3-134]	–	–	–	–	–	–	–	–	–	–	–	–	–	–	–	–	–	–	100%	100%	Pre-emergence action against AMARE (herbicidal activity) [6]: 90%; Pre-emergence action against MATIN [7]: 90%; Pre-emergence action against STEME [8]: 90%; Pre-emergence action against VIOTR [9]: 100%; Pre-emergence action against VERPE [10]: 80%; Post-emergence action against CYPES (herbicidal action in percent) [11]: 80%; Post-emergence action against ECHCG (herbicidal action in percent) [12]: 90%; Post-emergence action against ABUTH (herbicidal action in percent) [14]: 80%; Post-emergence action against AMARE (herbicidal action in percent) [15]: 90%; Post-emergence action against MATIN (herbicidal action in percent) [16]: 90%; Post-emergence action against PHBPU [17]: 90; Post-emergence action against STEME [18]: 100; Post-emergence action against VIOTR [19]: 90; Post-emergence action against VERPE [20]: 90
CCCn1nnnc1NC(=O)c1ccc(C(F)(F)F)c(C(C)=O)c1C [3-14]	–	–	–	–	–	–	–	–	–	–	–	–	–	–	–	–	–	–	100%	100%	Pre-emergence action against ALOMY (herbicidal activity in percent) [1]: 90%; Pre-emergence action against CYPES (herbicidal activity) [2]: 80%; SETVI (Table B8, pre-emergence herbicidal activity) [4]: 100%; Pre-emergence action against AMARE (herbicidal activity) [6]: 100%; Pre-emergence action against MATIN [7]: 100%; Pre-emergence action against PHBPU [21]: 90%; Pre-emergence action against STEME [8]: 100%; Pre-emergence action against VIOTR [9]: 100%; Pre-emergence action against VERPE [10]: 100%; Post-emergence action against CYPES (herbicidal action in percent) [11]: 90%; Post-emergence action against ECHCG (herbicidal action in percent) [12]: 100%; Post-emergence action against SETVI (herbicidal action in percent) [13]: 100%; Post-emergence action against ABUTH (herbicidal action in percent) [14]: 90%; Post-emergence action against AMARE (herbicidal action in percent) [15]: 100%; Post-emergence action against MATIN (herbicidal action in percent) [16]: 100%; Post-emergence action against PHBPU [17]: 90; Post-emergence action against STEME [18]: 100; Post-emergence action against VIOTR [19]: 100; Post-emergence action against VERPE [20]: 80
CC(=O)c1c(C)ccc(C(=O)Nc2nnnn2C)c1Cl [1-134]	90%	–	90%	100%	100%	90%	–	90%	90%	90%	80%	80%	90%	100%	90%	100%	100%	100%	–	–	–
Cc1ccc(C(=O)Nc2nnnn2C)c(Cl)c1C(=O)C1CC1 [1-136]	–	–	–	80%	100%	100%	–	80%	80%	–	–	–	90%	90%	90%	100%	90%	90%	–	–	–
Cn1nnnc1NC(=O)c1ccc(C(F)(F)F)c(C(=O)C(F)(F)F)c1Cl [1-162]	100%	100%	100%	90%	80%	100%	100%	80%	80%	90%	80%	100%	100%	–	100%	100%	100%	–	–	–	–
